# Assay results: publication PMC7037862, “Tricyclic Nucleobase Analogs and Their Ribosides as Substrates and Inhibitors of Purine-Nucleoside Phosphorylases III. Aminopurine Derivatives” (Molecules, 2020)
# Changes are numbered by the printed parent chain. Names may count otherwise. Where two headings read alike, the source gives them in different places.
# T1: calf spleen PNP (wt) (Bos taurus, UniProt P55859)
# T1 construct: made in house; host or cells: E. coli
# T1 sequence (P55859 1-289): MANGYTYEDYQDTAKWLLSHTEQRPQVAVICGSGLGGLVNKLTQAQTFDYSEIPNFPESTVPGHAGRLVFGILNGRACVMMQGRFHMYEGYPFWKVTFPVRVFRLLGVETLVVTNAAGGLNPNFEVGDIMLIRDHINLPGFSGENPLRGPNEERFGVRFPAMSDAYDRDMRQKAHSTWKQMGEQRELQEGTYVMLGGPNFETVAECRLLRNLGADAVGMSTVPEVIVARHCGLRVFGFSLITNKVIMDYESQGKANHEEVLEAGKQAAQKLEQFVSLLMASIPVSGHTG
# T2: calf PNP N243D (Bos taurus, UniProt P55859, N243D)
# T2 construct: made in house; host or cells: E. coli
# T2 sequence (P55859 1-289 N243D): T1 sequence (P55859 1-289) with N243D
# T3: E. coli PNP-wt (Escherichia coli, UniProt P0ABP8)
# T3 construct: made in house; host or cells: E. coli
# T3 sequence (P0ABP8 2-239 limits assumed): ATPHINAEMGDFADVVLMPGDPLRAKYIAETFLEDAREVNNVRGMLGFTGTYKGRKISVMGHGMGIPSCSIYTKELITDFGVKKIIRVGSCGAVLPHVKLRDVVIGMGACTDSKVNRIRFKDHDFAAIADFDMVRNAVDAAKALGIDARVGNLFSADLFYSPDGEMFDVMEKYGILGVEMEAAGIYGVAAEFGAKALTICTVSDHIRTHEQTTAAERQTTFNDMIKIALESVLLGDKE
# T4: calf PNP-wt (Bos taurus, UniProt P55859)
# T4 construct: made in house; host or cells: E. coli
# T4 sequence (P55859 1-289): T1 sequence (P55859 1-289)
# B1: E. coli PNP (wt) (Escherichia coli K-12) (protein)
# chain: T3 sequence (P0ABP8 2-239 limits assumed)
# notes: made in house; host or cells: E. coli
# B2: E. coli PNP-wt (Escherichia coli K-12) (protein)
# chain: T3 sequence (P0ABP8 2-239 limits assumed)
# notes: as for B1
# B3: calf spleen PNP (wt) (Bos taurus) (protein)
# chain: T1 sequence (P55859 1-289)
# notes: as for B1
# B4: calf PNP-wt (Bos taurus) (protein)
# chain: T1 sequence (P55859 1-289)
# notes: as for B1
# B5: calf PNP N243D (Bos taurus; N243D) (protein)
# chain: T1 sequence (P55859 1-289) with N243D
# notes: as for B1
# Tests used:
# [1] = Ionization constants (pKa), determined spectrophotometrically; format: physicochemical; conditions: phosphate and/or acetate buffers
# Experimental: Fluorescence spectra were measured on a Varian Eclipse instrument (Varian Corp., Palo Alto, CA, USA), and UV absorption kinetic experiments were performed on a Cary 5000 (Varian Corp., Palo Alto, CA, USA) thermostated spectrophotometer. Fluorescence yields were determined relative to tryptophan (0.15) or 1,N^6-ethenoadenosine in water (0.56, see ref. [2]). Emission spectra were measured in semi-micro cuvettes, pathlength 4 mm, to diminish the inner-filter effect. Typical spectral resolution was 2.5 nm. The ionization constants (pKa values) were determined spectrophotometrically using 20–50 mM phosphate and/or acetate buffers.
# [2] = target: T1, calf spleen PNP (wt); experiment: Enzymatic ribosylation with α-D-ribose-1-phosphate, calf PNP wild type; format: biochemical; conditions: for Vmax (Relative): ribosylation, relative to guanine ribosylation rate (=100); for ribosylation activity: trimeric calf spleen PNP, wild type
# Experimental: (§1) Recombinant E. coli PNP, calf spleen PNP, and their mutated forms were expressed in E. coli and purified according to the procedures described earlier. Enzyme concentrations were calculated per monomer.
# (§2) Enzymatic ribosylation reactions were carried out in 1 mL cuvettes (pathlength 4 mm) in ~50 mM HEPES buffer, pH 7.3, using 0.5 mM R1P as a ribose source. Reactions were followed fluorimetrically (see Section 2.4). On a larger scale (2–4 mg), the reactions were run in Eppendorf tubes, volume 2–3 mL, using either R1P (3–10 mM) or 7-methylguanosine as ribose sources. Products were purified by semi-preparative HPLC, concentrated and the final solutions kept frozen. Their structure has been confirmed by NMR (see Section 2.4 and Supplementary Materials) and by MS: comp. 3: m/z = 292.10385, comp. 4: m/z = 292.10400, comp. 5: m/z = 292.10398, calculated for C12H13N5O4 + H: 292.10403. Phosphorolysis reactions were run in 40–50 mM phosphate buffer, pH 7.0 or 6.5, and followed spectrally or fluorimetrically. Kinetic parameters were calculated by standard methods.
# [3] = target: T2, calf PNP N243D; experiment: Enzymatic ribosylation with α-D-ribose-1-phosphate, calf PNP N243D mutant; format: biochemical; conditions: for Vmax (Relative): ribosylation, relative to guanine ribosylation rate (=100)
# Experimental: as §1, §2
# [4] = target: T3, E. coli PNP-wt; experiment: Enzymatic ribosylation with α-D-ribose-1-phosphate, E. coli PNP wild type; format: biochemical; conditions: for Vmax (Relative): ribosylation, relative to guanine ribosylation rate (=100)
# Experimental: as §1, §2
# [5] = target: T5, E. coli PNP D204N (Escherichia coli, UniProt P0ABP8, D205N); experiment: Enzymatic ribosylation with α-D-ribose-1-phosphate, E. coli PNP D204N mutant; format: biochemical
# T5 construct: made in house; host or cells: E. coli
# Experimental: as §1, §2
# [6] = target: T6, E. coli PNP S90A (Escherichia coli, UniProt P0ABP8, S91A); experiment: Enzymatic ribosylation with α-D-ribose-1-phosphate, E. coli PNP S90A mutant; format: biochemical
# T6 construct: made in house; host or cells: E. coli
# Experimental: as §1, §2
# [7] = target: T7, E. coli PNP (Escherichia coli, UniProt P0ABP8); experiment: Fluorescence titration of E. coli PNP with ligand (enzyme-ligand complexes); format: binding; conditions: in the presence of phosphate, 40 mM, pH 7, 20 °C
# T7 construct: made in house; host or cells: E. coli
# Experimental: Additionally, the fluorescence excitation spectra reveal fluorescence energy transfer (FRET) from the protein to the complexed ligand, since they show marked enhancement in the region 270–280 nm, where the tyrosine residues of the PNP molecule absorb (Figure 10).
# Figure 10 Changes in fluorescence excitation (a) and emission spectra (b), observed during the titration of E. coli PNP with N^2,3-etheno-2-aminopurine (2). […] Spectra of the free ligand (3.5 μM) are given for comparison (points). Excitation spectrum of the protein, monitored at 310 nm, is given in black. Conditions: 40 mM phosphate, pH 7, at 20 °C. Concentration of protein was 10.1 μM (per subunit); that of the titrant was 0 to 3.5 μM. Lower panels: Fluorescence difference spectra, calculated from data presented on panels (a) and (b), (c) difference excitation (observed at 380 nm), (d) difference emission spectra, excited at 275 nm. Substrate concentrations are 0.17, 0.69, 1.37, 2.36 and 3.31 μM.
# Etheno-tubercidine (6) forms somewhat similar fluorescent complexes with the E. coli PNP. As shown below, FRET from the protein to the ligand is evident in the excitation spectra (Figure 11), and the ligand fluorescence blue shifted from 415 to ca. 390 nm (Figure 11b,c). In this case more than 60% of protein fluorescence is quenched when protein binding sites are saturated (cf. Figure 11). […]
# [8] = target: T3, E. coli PNP-wt; experiment: Enzymatic phosphorolysis of ribosides, E. coli PNP wild type; format: biochemical; conditions: for Vmax (Relative): relative to Vmax of guanosine phosphorolysis (=100)
# Experimental: as §1, §2
# [9] = target: T4, calf PNP-wt; experiment: Enzymatic phosphorolysis of ribosides, calf PNP wild type; format: biochemical; conditions: for Km: 40 mM phosphate buffer pH 7; for Vmax (Relative): relative to Vmax of guanosine phosphorolysis (=100)
# Experimental: as §1, §2
# [10] = substrate: c1cn2c(n1)ncc1nc[nH]c12; experiment: Enzymatic ribosylation with α-D-ribose-1-phosphate, E. coli PNP wild type; format: biochemical
# Experimental: as §1, §2
# [11] = substrate: OC[C@H]1O[C@@H](n2ccn3c4ncnc-4cnc23)[C@H](O)[C@@H]1O; experiment: Enzymatic phosphorolysis of ribosides, E. coli PNP wild type; format: biochemical; conditions: other: phosphorolysis, E. coli PNP-wt, 40 mM phosphate buffer pH 7
# Experimental: as §1, §2
# [12] = substrate: OC[C@H]1O[C@@H](n2ccn3cc4ncnc-4nc23)[C@H](O)[C@@H]1O; experiment: as above; format: biochemical; conditions: other: phosphorolysis, E. coli PNP-wt, 40 mM phosphate buffer pH 7
# Experimental: as §1, §2
# [13] = substrate: c1cn2c(n1)ncc1nc[nH]c12; experiment: Enzymatic ribosylation with α-D-ribose-1-phosphate, calf PNP wild type; format: biochemical; conditions: other: ribosylation by R1P, calf-wt PNP, 40 mM HEPES pH 7
# Experimental: as §1, §2
# [14] = substrate: OC[C@H]1O[C@@H](n2ccn3c4ncnc-4cnc23)[C@H](O)[C@@H]1O; experiment: Enzymatic phosphorolysis of ribosides, calf PNP wild type; format: biochemical; conditions: other: phosphorolysis, calf PNP-wt, 40 mM phosphate buffer pH 7
# Experimental: as §1, §2
# [15] = substrate: c1cn2c(n1)ncc1nc[nH]c12; experiment: Enzymatic ribosylation with α-D-ribose-1-phosphate, calf PNP N243D mutant; format: biochemical; conditions: other: ribosylation by R1P, 40 mM HEPES pH 7
# Experimental: as §1, §2
# [16] = acidic dissociation, read-out: pKa (acidic dissociation of the imidazole proton)
# [17] = protonation, read-out: pKa (protonation)
# [18] = ribosylation by R1P, 40 mM HEPES pH 7
# [19] = ribosylation, relative to guanine ribosylation rate (=100)
molecule,measurement,setting,value
"c1cn2cc3nc[nH]c3nc2n1 [Compound 1, 1,N^2-etheno-2-aminopurine]",pKa,[1]; [16],8.2
same,pKa,[1]; [17],5.6
same,Km,"[2]; ribosylation by R1P, calf-wt PNP, 40 mM HEPES pH 7",nr
same,Vmax (Relative),[2]; calf-wt PNP,< 0.1
same,ribosylation activity,[2],apparently inactive
same,Vmax (Relative),[3]; calf PNP N243D,traces
same,Ribosylation Site,[4],mostly N^2
same,Km,[4]; [18],< 10 µM
same,Vmax (Relative),[4],~1
"c1cn2c(n1)ncc1nc[nH]c12 [Compound 2, N^2,3-etheno-2-aminopurine]",pKa,[1]; [16],~9.5
same,pKa,[1]; [17],5
same,Ribosylation Site,[2]; calf-wt PNP,predominantly N^2
same,Vmax (Relative),[2]; calf-wt PNP,~5
same,ribosylation activity,[2],moderate rate
same,Ribosylation Site,[3]; calf PNP N243D,predominantly N^2
same,ribosylation activity,[3]; calf PNP mutated in the active site (N243D),fairly rapidly ribosylated
same,Vmax (Relative),[3]; calf PNP N243D,29
same,Ribosylation Site,[4],predominantly N^2
same,Vmax (Relative),[4],20
same,Ribosylation Site,[5],predominantly N^2
same,Km,[5]; [18],12 µM
same,Vmax (Relative),[5]; [19],30
same,Ribosylation Site,[6],predominantly N^2
same,Km,[6]; [18],~20 µM
same,Vmax (Relative),[6]; [19],23
same,quenching of the protein fluorescence at 305 nm,[7],moderate quenching
"OC[C@H]1O[C@@H](n2cnc3cn4ccnc4nc32)[C@H](O)[C@@H]1O [Compound 3, 1,N^2-etheno-2-aminopurine-N^9-β-D-riboside]",Km,[8]; 40 mM phosphate buffer pH 7,nr
same,Vmax (Relative),[8],<1
same,Km,[9],nr
same,Vmax (Relative),[9],<0.1
"OC[C@H]1O[C@@H](n2ccn3cc4ncnc-4nc23)[C@H](O)[C@@H]1O [Compound 4, 1,N^2-etheno-2-aminopurine-N^2-β-D-riboside]",pKa,[1]; [17],~6.3
same,Vmax (Relative),[8],4
same,Km,[9],nr
same,Vmax (Relative),[9],<0.1
"OC[C@H]1O[C@@H](n2ccn3c4ncnc-4cnc23)[C@H](O)[C@@H]1O [Compound 5, N^2,3-etheno-2-aminopurine-N^2-β-D-riboside]",pKa,[1]; [17],6.15
same,Vmax (Relative),[8],115
same,Vmax (Relative),[9],3
B1,Km,[10]; other: E. coli PNP and its mutated forms,10 µM
same,Km,"[10]; other: ribosylation by R1P, E. coli-wt PNP, 40 mM HEPES pH 7, pH 7.0",11 µM
B2,Km,[11],~ 20 μM
same,Km,[12],47 µM
B3,Km,[13],~8 µM
B4,Km,[14],4.6 µM
B5,Km,[15],110 µM
